Assay results: US9402917B2, “Methods for the induction of broadly anti-HIV-1 neutralizing antibody responses employing liposome-MPER peptide compositions” (priority 2009, dated 2016)

Test system: 2F5 mAb
Test: SPR assay with liposome-anchored peptides
Format: binding
Details: 10 seconds after the injection was stopped; peptide anchored to liposomes

Substance | binding response (background subtracted)
QQEKNEQELLELDKWASLWNYKRWIILGLNKIVRMYS-biotin [consensus 2F5 epitope] | 494.6 response unit
QQEKNEQELLELDKWASSWNYKRWIILGLNKIVRMYS-biotin | 616.7 response unit
